Test results published in patent US20250144067A1, “PERSONALIZED STARVATION THERAPY FOR CANCER” (Faeth Therapeutics, Inc., priority 2021, published 2025).
Read-outs that look alike come from different tables or passages of the source.

Key:
[1] = test system: NCI-H292 lung cancer cells; experiment: FDA drug screening, complete media vs cholesterol-free media without statin (TABLE 1); format: cell-based, human
[2] = test system: NCI-H292 lung cancer cells; experiment: FDA drug screening, complete media vs cholesterol-free media with simvastatin (TABLE 2); format: cell-based, human
[3] = NCI-H292 cells, cholesterol-free media without statin
[4] = complete vs cholesterol-free media, greater than 0 enhanced anti-cancer activity, about 0 neutral, below 0 antagonists
[5] = NCI-H292 cells, drug in cholesterol-free media with simvastatin 0.04 μM
[6] = NCI-H292 cells, drug in complete media
[7] = complete media vs cholesterol-free media + simvastatin (0.04 μM), >0 enhanced anti-cancer activity, about 0 neutral, <0 antagonist
[8] = Complete minus Cholesterol-free, greater than 0 enhanced anti-cancer activity, about 0 neutral, below 0 antagonists
[9] = NCI-H292 cells in complete media
[10] = NCI-H292 cells in cholesterol-free media without statin
[11] = NCI-H292 cells, cholesterol-free media with simvastatin 0.04 μM, FDA drug library screen (TABLE 2)
[12] = NCI-H292 cells, complete media, FDA drug library screen (TABLE 2)
[13] = complete media minus cholesterol-free media + simvastatin (0.04 μM), >0 enhanced anti-cancer activity, about 0 neutral, <0 antagonist
[14] = Complete minus Cholesterol-free, […]
[15] = NCI-H292 cells, FDA drug library screen, cholesterol-free media with simvastatin 0.04 μM
[16] = NCI-H292 cells, FDA drug library screen, complete media
[17] = complete media vs cholesterol-free media + simvastatin (0.04 μM), […]
[18] = complete vs cholesterol-free media, […]
[19] = NCI-H292 cells, cholesterol-free media without statin, FDA drug library screen
[20] = NCI-H292 cells, complete media, FDA drug library screen
[21] = complete media minus cholesterol-free media + simvastatin, >0 enhanced anti-cancer activity, about 0 neutral, <0 antagonist
[22] = Complete minus Cholesterol-free, greater than 0 enhanced anti-cancer activity, about 0 neutral, below 0 antagonist
[23] = NCI-H292 cells, FDA library drug in cholesterol-free media with simvastatin 0.04 μM
[24] = NCI-H292 cells, FDA library drug in complete media
[25] = Complete minus Cholesterol-free, >0 enhanced anti-cancer activity, about 0 neutral, <0 antagonist
[26] = NCI-H292 cells, FDA drug library screen, cholesterol-free media without statin
[27] = complete media minus cholesterol-free media + simvastatin (0.04 μM), […]
[28] = complete vs cholesterol-free media, >0 enhanced anti-cancer activity, about 0 neutral, <0 antagonist

Pefloxacin (mesylate)
Cholesterol-free [1, 3]: 1.183 | Complete ([1]; NCI-H292 cells, complete media): 0.8627 | Difference [1, 4]: −0.32 | Cholesterol-free media + simvastatin (0.04 μM) [2, 5]: 1.02 | Complete Media [2, 6]: 0.8577 | Difference [2, 7]: −0.16

Penbutolol (sulfate)
Difference [1, 8]: −0.71 | Complete [1, 9]: 1.219 | Cholesterol-free media + simvastatin (0.04 μM) [2, 5]: 0.9562 | Complete Media [2, 6]: 0.7448 | Difference [2, 7]: −0.21

Pergolide (mesylate)
Cholesterol-free [1]: 1.027 | Complete [1]: 0.8214 | Difference [1]: −0.21 | Cholesterol-free media + simvastatin (0.04 μM) [2]: 0.9579 | Complete Media [2]: 1.079 | Difference [2]: 0.12

Pheniramine (Maleate)
Difference [1, 8]: −0.65 | Cholesterol-free [1, 10]: 1.526 | Complete [1, 9]: 0.8791 | Cholesterol-free media + simvastatin (0.04 μM) [2, 11]: 1.33 | Complete Media [2, 12]: 1.284 | Difference [2, 13]: −0.05

Phentolamine (mesylate)
Difference [1, 8]: −0.51 | Cholesterol-free [1, 10]: 1.404 | Complete [1, 9]: 0.8982 | Cholesterol-free media + simvastatin (0.04 μM) [2, 11]: 0.9072 | Complete Media [2, 12]: 0.8992 | Difference [2, 13]: −0.01

Phillyrin
Difference [1, 14]: −0.77 | Cholesterol-free [1, 10]: 1.584 | Complete [1, 9]: 0.8182 | Cholesterol-free media + simvastatin (0.04 μM) [2, 15]: 1.405 | Complete Media [2, 16]: 1.262 | Difference [2, 17]: −0.14

Pimavanserin tartrate
Cholesterol-free [1, 3]: 1.261 | Complete ([1]; NCI-H292 cells, complete media): 0.9005 | Difference [1, 18]: −0.36 | Cholesterol-free media + simvastatin (0.04 μM) [2, 15]: 1.092 | Complete Media [2, 16]: 0.9419 | Difference [2, 17]: −0.15

Pixantrone (dimaleate)
Cholesterol-free [1, 3]: 1.33 | Complete ([1]; NCI-H292 cells, complete media): 0.8848 | Difference [1, 4]: −0.45 | Cholesterol-free media + simvastatin (0.04 μM) [2, 15]: 1.334 | Complete Media [2, 16]: 1.212 | Difference [2, 7]: −0.12

Polidocanol
Cholesterol-free [1, 19]: 0.7606 | Complete [1, 20]: 0.9235 | Difference [1, 18]: 0.16 | Cholesterol-free media + simvastatin (0.04 μM) [2, 15]: 1.046 | Complete Media [2, 16]: 0.8917 | Difference [2, 17]: −0.15

Polymyxin B (Sulfate)
Difference [1, 14]: −0.03 | Cholesterol-free [1, 19]: 0.9793 | Complete [1, 20]: 0.9463 | Cholesterol-free media + simvastatin (0.04 μM) [2, 5]: 1.169 | Complete Media [2, 6]: 0.9427 | Difference [2, 17]: −0.23

Potassium guaiacolsulfonate (hemihydrate)
Cholesterol-free [1]: 1.74 | Complete [1]: 0.9478 | Difference [1]: −0.79 | Cholesterol-free media + simvastatin (0.04 μM) [2]: 1.702 | Complete Media [2]: 1.838 | Difference [2]: 0.14

Prednisolone (disodium phosphate)
Cholesterol-free [1, 3]: 1.087 | Complete ([1]; NCI-H292 cells, complete media): 0.6422 | Difference [1, 4]: −0.44 | Cholesterol-free media + simvastatin (0.04 μM) [2, 15]: 0.4379 | Complete Media [2, 16]: 0.7375 | Difference [2, 21]: 0.30

Prednisolone (hemisuccinate)
Cholesterol-free [1]: 0.8784 | Complete [1]: 0.4751 | Difference [1]: −0.40 | Cholesterol-free media + simvastatin (0.04 μM) [2]: 0.7218 | Difference [2]: 0.06

Primaquine (Diphosphate)
Cholesterol-free [1]: 1.192 | Complete [1]: 0.8514 | Difference [1]: −0.34 | Cholesterol-free media + simvastatin (0.04 μM) [2]: 1.421 | Complete Media [2]: 1.652 | Difference [2]: 0.23

Prucalopride (succinate)
Cholesterol-free [1, 3]: 1.329 | Complete ([1]; NCI-H292 cells, complete media): 0.905 | Difference [1, 4]: −0.42 | Cholesterol-free media + simvastatin (0.04 μM) [2, 15]: 1.172 | Complete Media [2, 16]: 1.048 | Difference [2, 7]: −0.12

Pyrantel (tartrate)
Difference [1, 22]: −0.17 | Complete [1, 16]: 0.9815 | Cholesterol-free media + simvastatin (0.04 μM) [2, 23]: 1.712 | Complete Media [2, 24]: 1.209 | Difference [2, 7]: −0.50

Quetiapine (hemifumarate)
Difference [1, 25]: −0.22 | Cholesterol-free [1, 3]: 0.9339 | Complete ([1]; NCI-H292 cells, complete media): 0.7112 | Cholesterol-free media + simvastatin (0.04 μM) [2, 15]: 0.6141 | Complete Media [2, 16]: 0.8428 | Difference [2, 21]: 0.23

Rasagiline (mesylate)
Difference [1, 22]: −0.16 | Cholesterol-free [1, 26]: 0.8816 | Complete [1, 16]: 0.7256 | Cholesterol-free media + simvastatin (0.04 μM) [2, 15]: 1.319 | Complete Media [2, 16]: 1.208 | Difference [2, 7]: −0.11

Ribociclib succinate
Difference [1, 25]: −0.23 | Cholesterol-free [1, 3]: 0.9857 | Complete ([1]; NCI-H292 cells, complete media): 0.7555 | Cholesterol-free media + simvastatin (0.04 μM) [2, 11]: 0.606 | Complete Media [2, 12]: 0.6094 | Difference [2, 13]: 0.00

Ribociclib succinate hydrate
Difference [1, 25]: −0.21 | Cholesterol-free [1, 3]: 0.9345 | Complete ([1]; NCI-H292 cells, complete media): 0.7226 | Cholesterol-free media + simvastatin (0.04 μM) ([2]; NCI-H292 cells, cholesterol-free media with simvastatin 0.04 μM, cell growth value in FDA drug screen): 0.4954 | Complete Media ([2]; NCI-H292 cells, complete media, cell growth value in FDA drug screen): 0.6321 | Difference [2, 21]: 0.14

Riboflavin (phosphate sodium)
Cholesterol-free [1, 3]: 1.308 | Complete ([1]; NCI-H292 cells, complete media): 0.9828 | Difference [1, 4]: −0.32 | Cholesterol-free media + simvastatin (0.04 μM) [2, 15]: 1.127 | Complete Media [2, 16]: 0.9972 | Difference [2, 7]: −0.13

Rilmenidine (hemifumarate)
Cholesterol-free [1, 3]: 1.211 | Complete ([1]; NCI-H292 cells, complete media): 0.771 | Difference [1, 18]: −0.44 | Cholesterol-free media + simvastatin (0.04 μM) [2, 23]: 1.87 | Complete Media [2, 24]: 1.431 | Difference [2, 17]: −0.44

Rilmenidine (phosphate)
Difference [1, 14]: 0.01 | Cholesterol-free [1, 19]: 0.9893 | Complete [1, 20]: 0.995 | Cholesterol-free media + simvastatin (0.04 μM) [2, 11]: 1.249 | Complete Media [2, 12]: 1.215 | Difference [2, 27]: −0.03

Rivastigmine (tartrate)
Cholesterol-free [1, 3]: 1.242 | Complete ([1]; NCI-H292 cells, complete media): 0.9137 | Difference [1, 18]: −0.33 | Cholesterol-free media + simvastatin (0.04 μM) [2, 11]: 1.478 | Complete Media [2, 12]: 1.417 | Difference [2, 27]: −0.06

Rucaparib (phosphate)
Cholesterol-free [1, 19]: 0.6538 | Complete [1, 20]: 0.9448 | Difference [1, 28]: 0.29 | Complete Media [2, 12]: 1.39 | Difference [2, 13]: −0.02

Rupatadine (Fumarate)
Difference [1, 25]: −0.23 | Cholesterol-free [1, 3]: 1.308 | Cholesterol-free media + simvastatin (0.04 μM) [2, 15]: 0.9792 | Complete Media [2, 16]: 1.536 | Difference [2, 21]: 0.56

Ruxolitinib (phosphate)
Difference [1, 25]: −0.04 | Cholesterol-free [1, 19]: 0.6764 | Complete [1, 20]: 0.6315 | Cholesterol-free media + simvastatin (0.04 μM) [2, 5]: 0.8715 | Complete Media [2, 6]: 0.6795 | Difference [2, 7]: −0.19

Safinamide (mesylate)
Difference [1, 22]: −0.18 | Complete Media [2, 6]: 0.843 | Difference [2, 7]: −0.20

Salbutamol (hemisulfate)
Difference [1, 22]: −0.13 | Cholesterol-free [1, 26]: 1.595 | Complete [1, 16]: 1.464 | Cholesterol-free media + simvastatin (0.04 μM) [2, 23]: 2.036 | Complete Media [2, 24]: 1.453 | Difference [2, 7]: −0.58

Saquinavir (Mesylate)
Cholesterol-free [1, 19]: 0.7536 | Complete [1, 20]: 1.206 | Difference [1, 28]: 0.45 | Cholesterol-free media + simvastatin (0.04 μM) [2, 15]: 2.052 | Complete Media [2, 16]: 1.925 | Difference [2, 7]: −0.13

Selumetinib (sulfate)
Difference [1, 14]: −0.06 | Cholesterol-free [1, 19]: 0.3932 | Complete [1, 20]: 0.3287 | Cholesterol-free media + simvastatin (0.04 μM) [2, 15]: 0.2941 | Difference [2, 17]: −0.10

Sertaconazole (nitrate)
Cholesterol-free [1, 19]: 0.6893 | Complete [1, 20]: 0.8595 | Difference [1, 28]: 0.17 | Cholesterol-free media + simvastatin (0.04 μM) [2, 15]: 0.3702 | Complete Media [2, 16]: 0.8436 | Difference [2, 21]: 0.47
